{"source": "patent US20250032524A1", "about": "“BROAD SPECTRUM AMINOGLYCOSIDES AND USES THEREOF” (REVAGENIX, INC., priority 2022, published 2025)", "key": {"A. baumannii": {"system": "A. baumannii", "test": "MIC broth microdilution (CLSI)", "format": "cell-based", "description": "(§1) Minimum inhibitory concentrations for representative example compounds herein were determined by a broth microdilution method in accordance with the Clinical and Laboratory Standards Institute (CLSI) guidelines. In brief, organism suspensions were adjusted to a 0.5 McFarland standard to yield a final inoculum between 3×10^5 and 7×10^5 colony-forming units (CFU)/mL. The inoculum was prepared by suspension of a colony from an agar plate that was prepared the previous day. Compound dilutions and inoculum were prepared in sterile, cation adjusted Mueller-Hinton Broth (Beckton Dickinson).\n(§2) Bacteria were suspended in sterile saline and added to each assay plate to obtain a final concentration of 5×10^5 CFU/mL. An inoculum volume of 100 μL was added to wells containing 100 μL of broth with 2-fold serial dilutions of the test compound. All inoculated microdilution trays were incubated in ambient air at 35° C. for 18-24 hours. Following incubation, the lowest concentration of the compound that prevented visible growth (OD 600 nm<0.05) is recorded was the MIC. […] Performance of the assay was monitored by the use of laboratory quality-control strains and a standard compound with a defined MIC spectrum (neomycin), in accordance with CLSI guidelines."}, "C. freundii": {"system": "C. freundii", "test": "MIC broth microdilution (CLSI)", "format": "cell-based", "settings": "strain ACSP1001, MDR Clinical isolate (CDC CRE panel), CDC AR Bank 0157", "description": "as §1, §2"}, "E. cloacae": {"system": "E. cloacae", "test": "MIC broth microdilution (CLSI)", "format": "cell-based", "settings": "strain AECL1089, MDR Clinical isolate (CDC CRE panel), CDC AR Bank 0154", "description": "as §1, §2"}, "E. coli": {"system": "E. coli", "test": "MIC broth microdilution (CLSI)", "format": "cell-based", "description": "as §1, §2"}, "K. aerogenes": {"system": "K. aerogenes", "test": "MIC broth microdilution (CLSI)", "format": "cell-based", "settings": "strain AEAE1042, MDR Clinical isolate (CDC CRE panel), CDC AR Bank 0161", "description": "as §1, §2"}, "K. pneumoniae": {"system": "K. pneumoniae", "test": "MIC broth microdilution (CLSI)", "format": "cell-based", "description": "as §1, §2"}, "P. aeruginosa": {"system": "P. aeruginosa", "test": "MIC broth microdilution (CLSI)", "format": "cell-based", "description": "as §1, §2"}, "P. mirabilis": {"system": "P. mirabilis", "test": "MIC broth microdilution (CLSI)", "format": "cell-based", "settings": "strain APMI1048, MDR Clinical isolate (CDC CRE panel), CDC AR Bank 0159", "description": "as §1, §2"}, "S. aureus": {"system": "S. aureus", "test": "MIC broth microdilution (CLSI)", "format": "cell-based", "description": "as §1, §2"}, "S. enterica": {"system": "S. enterica", "test": "MIC broth microdilution (CLSI)", "format": "cell-based", "settings": "strain ASSE1001, MDR Clinical isolate (CDC CRE panel), CDC AR Bank 0127", "description": "as §1, §2"}, "[1]": {"system": "A. baumannii strain CDC-313", "test": "Neutropenic mouse lung infection model", "format": "in vivo", "settings": "neutropenic CD-1 male mice, FIG. 15"}}}
{"smiles": "NC[C@@H]1O[C@H](O[C@H]2[C@@H](O)[C@H](O[C@@H]3[C@@H](O)[C@H](N)C[C@H](N)[C@H]3O[C@H]3O[C@H](CN)[C@@H](O)[C@H](O)[C@H]3N)O[C@@H]2CO)[C@H](N)[C@@H](O)[C@@H]1O", "note": "[NEO, neomycin, reference compound]", "values": [{"measurement": "Activity (MIC)", "setting": "A. baumannii; strain NABA0006, WT parent", "value": "+ (MIC threshold for positive activity (+) is ≤16 μg/mL)"}, {"measurement": "Activity (MIC)", "setting": "A. baumannii; strain NABA0007, ΔadeJK efflux", "value": "+ (MIC threshold for positive activity (+) is ≤16 μg/mL)"}, {"measurement": "Activity (MIC)", "setting": "A. baumannii; strain NABA0020, AME negative strain", "value": "+ (MIC threshold for positive activity (+) is ≤16 μg/mL)"}, {"measurement": "Activity (MIC)", "setting": "A. baumannii; strain NABA1427, MDR Clinical isolate", "value": "− (for inactive (−) is >16 μg/mL)"}, {"measurement": "Activity (MIC)", "setting": "A. baumannii; strain NABA1433, MDR Clinical isolate", "value": "− (for inactive (−) is >16 μg/mL)"}, {"measurement": "Activity (MIC)", "setting": "A. baumannii; strain NABA1434, MDR Clinical isolate", "value": "+ (MIC threshold for positive activity (+) is ≤16 μg/mL)"}, {"measurement": "Activity (MIC)", "setting": "A. baumannii; strain NABA1436, MDR Clinical isolate", "value": "− (for inactive (−) is >16 μg/mL)"}, {"measurement": "Activity (MIC)", "setting": "A. baumannii; strain NABA1437, MDR Clinical isolate", "value": "+ (MIC threshold for positive activity (+) is ≤16 μg/mL)"}, {"measurement": "Activity (MIC)", "setting": "A. baumannii; strain NABA1438, MDR Clinical isolate", "value": "− (for inactive (−) is >16 μg/mL)"}, {"measurement": "Activity (MIC)", "setting": "A. baumannii; strain NABA1439, MDR Clinical isolate", "value": "− (for inactive (−) is >16 μg/mL)"}, {"measurement": "Activity (MIC)", "setting": "A. baumannii; strain NABA1448, MDR Clinical isolate", "value": "− (for inactive (−) is >16 μg/mL)"}, {"measurement": "Activity (MIC)", "setting": "A. baumannii; strain NABA1449, MDR Clinical isolate", "value": "+ (MIC threshold for positive activity (+) is ≤16 μg/mL)"}, {"measurement": "Activity (MIC)", "setting": "A. baumannii; strain NABA1450, MDR Clinical isolate", "value": "− (for inactive (−) is >16 μg/mL)"}, {"measurement": "Activity (MIC)", "setting": "C. freundii", "value": "− (for inactive (−) is >16 μg/mL)"}, {"measurement": "Activity (MIC)", "setting": "E. cloacae", "value": "+ (MIC threshold for positive activity (+) is ≤16 μg/mL)"}, {"measurement": "Activity (MIC)", "setting": "E. coli; strain AECO1225, MDR Clinical isolate (CDC CRE panel), CDC AR Bank 0118", "value": "+ (MIC threshold for positive activity (+) is ≤16 μg/mL)"}, {"measurement": "Activity (MIC)", "setting": "E. coli; strain AECO1226, MDR Clinical isolate (CDC CRE panel), CDC AR Bank 0119", "value": "+ (MIC threshold for positive activity (+) is ≤16 μg/mL)"}, {"measurement": "Activity (MIC)", "setting": "E. coli; strain AECO1227, MDR Clinical isolate (CDC CRE panel), CDC AR Bank 0128", "value": "+ (MIC threshold for positive activity (+) is ≤16 μg/mL)"}, {"measurement": "Activity (MIC)", "setting": "E. coli; strain NECO0001, WT QC", "value": "+ (MIC threshold for positive activity (+) is ≤16 μg/mL)"}, {"measurement": "Activity (MIC)", "setting": "E. coli; strain NECO0002, WT", "value": "+ (MIC threshold for positive activity (+) is ≤16 μg/mL)"}, {"measurement": "Activity (MIC)", "setting": "E. coli; strain NECO0003, ΔtolC", "value": "+ (MIC threshold for positive activity (+) is ≤16 μg/mL)"}, {"measurement": "Activity (MIC)", "setting": "E. coli; strain NECO0243, empty vector", "value": "+ (MIC threshold for positive activity (+) is ≤16 μg/mL)"}, {"measurement": "Activity (MIC)", "setting": "E. coli; strain NECO0244, AAC(6')-Ib", "value": "+ (MIC threshold for positive activity (+) is ≤16 μg/mL)"}, {"measurement": "Activity (MIC)", "setting": "E. coli; strain NECO0245, ArmA", "value": "+ (MIC threshold for positive activity (+) is ≤16 μg/mL)"}, {"measurement": "Activity (MIC)", "setting": "E. coli; strain NECO0289, APH(3')-Ia", "value": "− (for inactive (−) is >16 μg/mL)"}, {"measurement": "Activity (MIC)", "setting": "E. coli; strain NECO0302, AAC(3)-IIa", "value": "+ (MIC threshold for positive activity (+) is ≤16 μg/mL)"}, {"measurement": "Activity (MIC)", "setting": "E. coli; strain NECO0350, AAC(2')-I", "value": "+ (MIC threshold for positive activity (+) is ≤16 μg/mL)"}, {"measurement": "Activity (MIC)", "setting": "E. coli; strain NECO0359, ANT(4')-Ia", "value": "+ (MIC threshold for positive activity (+) is ≤16 μg/mL)"}, {"measurement": "Activity (MIC)", "setting": "K. aerogenes", "value": "+ (MIC threshold for positive activity (+) is ≤16 μg/mL)"}, {"measurement": "Activity (MIC)", "setting": "K. pneumoniae; strain AKPN1246, MDR Clinical isolate (CDC CRE panel), CDC AR Bank 0139", "value": "+ (MIC threshold for positive activity (+) is ≤16 μg/mL)"}, {"measurement": "Activity (MIC)", "setting": "K. pneumoniae; strain AKPN1250, MDR Clinical isolate (CDC CRE panel), CDC AR Bank 0143", "value": "+ (MIC threshold for positive activity (+) is ≤16 μg/mL)"}, {"measurement": "Activity (MIC)", "setting": "K. pneumoniae; strain AKPN1253, MDR Clinical isolate (CDC CRE panel), CDC AR Bank 0148", "value": "+ (MIC threshold for positive activity (+) is ≤16 μg/mL)"}, {"measurement": "Activity (MIC)", "setting": "K. pneumoniae; strain AKPN1255, MDR Clinical isolate (CDC CRE panel), CDC AR Bank 0153", "value": "+ (MIC threshold for positive activity (+) is ≤16 μg/mL)"}, {"measurement": "Activity (MIC)", "setting": "P. aeruginosa; strain NPAE0001, WT Aph(3')-IIb, QC", "value": "− (for inactive (−) is >16 μg/mL)"}, {"measurement": "Activity (MIC)", "setting": "P. aeruginosa; strain NPAE0002, WT Aph(3')-IIb", "value": "+ (MIC threshold for positive activity (+) is ≤16 μg/mL)"}, {"measurement": "Activity (MIC)", "setting": "P. aeruginosa; strain NPAE0006, Efflux KO, Aph(3')-IIb", "value": "+ (MIC threshold for positive activity (+) is ≤16 μg/mL)"}, {"measurement": "Activity (MIC)", "setting": "P. aeruginosa; strain NPAE0010, MexXY over-expressed, Aph(3')-IIb", "value": "− (for inactive (−) is >16 μg/mL)"}, {"measurement": "Activity (MIC)", "setting": "P. aeruginosa; strain NPAE0359, aph(3')-IIb KO (tetR)", "value": "− (for inactive (−) is >16 μg/mL)"}, {"measurement": "Activity (MIC)", "setting": "P. aeruginosa; strain NPAE1288, MDR Clinical isolate", "value": "− (for inactive (−) is >16 μg/mL)"}, {"measurement": "Activity (MIC)", "setting": "P. aeruginosa; strain NPAE1293, MDR Clinical isolate", "value": "− (for inactive (−) is >16 μg/mL)"}, {"measurement": "Activity (MIC)", "setting": "P. aeruginosa; strain NPAE1299, MDR Clinical isolate", "value": "− (for inactive (−) is >16 μg/mL)"}, {"measurement": "Activity (MIC)", "setting": "P. aeruginosa; strain NPAE1302, MDR Clinical isolate", "value": "− (for inactive (−) is >16 μg/mL)"}, {"measurement": "Activity (MIC)", "setting": "P. aeruginosa; strain NPAE1303, MDR Clinical isolate", "value": "− (for inactive (−) is >16 μg/mL)"}, {"measurement": "Activity (MIC)", "setting": "P. aeruginosa; strain NPAE1308, MDR Clinical isolate", "value": "− (for inactive (−) is >16 μg/mL)"}, {"measurement": "Activity (MIC)", "setting": "P. aeruginosa; strain NPAE1310, MDR Clinical isolate", "value": "+ (MIC threshold for positive activity (+) is ≤16 μg/mL)"}, {"measurement": "Activity (MIC)", "setting": "P. aeruginosa; strain NPAE1313, MDR Clinical isolate", "value": "− (for inactive (−) is >16 μg/mL)"}, {"measurement": "Activity (MIC)", "setting": "P. aeruginosa; strain NPAE1316, MDR Clinical isolate", "value": "+ (MIC threshold for positive activity (+) is ≤16 μg/mL)"}, {"measurement": "Activity (MIC)", "setting": "P. aeruginosa; strain NPAE1323, MDR Clinical isolate", "value": "− (for inactive (−) is >16 μg/mL)"}, {"measurement": "Activity (MIC)", "setting": "P. mirabilis", "value": "+ (MIC threshold for positive activity (+) is ≤16 μg/mL)"}, {"measurement": "Activity (MIC)", "setting": "S. aureus; strain NSAU001, wild-type, QC, ATCC 29213", "value": "+ (MIC threshold for positive activity (+) is ≤16 μg/mL)"}, {"measurement": "Activity (MIC)", "setting": "S. aureus; strain NSAU1004, MDR Clinical isolate", "value": "+ (MIC threshold for positive activity (+) is ≤16 μg/mL)"}, {"measurement": "Activity (MIC)", "setting": "S. aureus; strain NSAU1015, MDR Clinical isolate", "value": "+ (MIC threshold for positive activity (+) is ≤16 μg/mL)"}, {"measurement": "Activity (MIC)", "setting": "S. aureus; strain NSAU1023, MDR Clinical isolate", "value": "− (for inactive (−) is >16 μg/mL)"}, {"measurement": "Activity (MIC)", "setting": "S. aureus; strain NSAU1063, MDR Clinical isolate", "value": "− (for inactive (−) is >16 μg/mL)"}, {"measurement": "Activity (MIC)", "setting": "S. enterica", "value": "+ (MIC threshold for positive activity (+) is ≤16 μg/mL)"}]}
{"smiles": "NCC[C@H](O)C(=O)N[C@@H]1C[C@H](N)[C@@H](O[C@H]2O[C@H](CN)[C@@H](O)[C@H](O)[C@H]2O)[C@H](O)[C@H]1O[C@H]1O[C@H](CO)[C@@H](O)[C@H](N)[C@H]1O", "note": "[amikacin]", "values": [{"measurement": "in vivo antibacterial activity against the strain", "setting": "[1]", "value": "minimal activity"}]}
